Test results published in US5429766A, “Detergent composition containing alkaline pullylanase enzyme” (Kao Corporation, priority 1990, dated 1995).

Legend:
Type in all cases: biochemical
[1] = test system: alkaline pullulanase A from Bacillus sp. KSM-AP 1876 (FERM BP-3049); assay: Effects of chelating agents on pullulanase activity of alkaline pullulanase A; details: substrate pullulan
Method: (§1) 0.1 ml of enzyme solution was added to 0.9 ml of a substrate solution consisting of a buffer solution and pullulan (final concentration in the reaction system was 0.25%), and the mixture was reacted at 40° C. for 30 minutes. After the reaction, reducing sugar was quantitatively determined by a method of the 3,5-dinitrosalicylic acid (DNS).
(§2) Specifically, 1.0 ml of DNS reagent was added to 1.0 ml of reaction mixture, and the mixture was heated at 100° C. for 5 minutes to develop color. After cooling, the mixture was diluted by adding 4.0 ml of deionized water. This solution was subjected to colorimetric quantitative analysis at a wave length of 535 nm. One unit (1U) of enzyme activity was defined as the amount of enzyme which released 1 μmol of reducing sugar (as glucose) per minute.

[2] = test system: alkaline pullulanase B (having α-amylase activity) from Bacillus sp. KSM-AP 1378 (FERM BP-3048), pullulanase activity; assay: Effects of chelating agents on pullulanase activity of alkaline pullulanase B; details: for Effect of chelating agent on pullulanase activity: chelating agent 10 mM; for Residual activity (%), Pullulanase activity: compound 10 mM, no addition = 100
Method: as §1, §2
Same procedures were followed as mentioned in the section of alkaline pullulanase A.
The α-amylase activity which had been adversely affected by chelating agents can be restored by the addition of Ca^2+ ions as shown in Table 3.

[3] = test system: alkaline pullulanase B (having α-amylase activity) from Bacillus sp. KSM-AP 1378 (FERM BP-3048), α-amylase activity; assay: Effects of chelating agents on α-amylase activity of alkaline pullulanase B
Method: as §2, with “0.1 ml of enzyme solution was added to 0.9 ml of a substrate solution consisting of a buffer solution and soluble starch (final concentration in the reaction system was 0.25%), and the mixture was reacted at 50° C. for 15 minutes. After the reaction, reducing sugar was quantitatively determined by means of a DNS method. Specifically,” for “Specifically,”, “at” for “at a”

Structure (SMILES): O=C(O)CN(CCN(CC(=O)O)CC(=O)O)CC(=O)O [EDTA]
- Effect of chelating agent on pullulanase activity ([1]; chelating agent 10 mM): almost no adverse effects
- Effect of chelating agent on pullulanase activity [2]: almost no adverse effect
- Residual activity (%), Pullulanase activity [2]: 77%

Structure (SMILES): O=C(O)CC(O)(CC(=O)O)C(=O)O [citric acid]
- Effect of chelating agent on pullulanase activity ([1]; chelating agent 0.05% by weight): almost no adverse effects

Structure (SMILES): O=C(O)CN(CCOCCOCCN(CC(=O)O)CC(=O)O)CC(=O)O [EGTA]
- Effect of chelating agent on pullulanase activity ([1]; chelating agent 10 mM): almost no adverse effects
- Effect of chelating agent on pullulanase activity [2]: almost no adverse effect
- Residual activity (%), Pullulanase activity [2]: 65%
- Effect of chelating agent on α-amylase activity ([3]; chelating agent 10 mM, restored by addition of Ca2+ ions): adversely affected significantly
- Residual activity (%), α-Amylase activity, when Ca2+ ions were added again ([3]; compound 10 mM, then Ca2+ ions added again (values in parentheses)): 91%
- Residual activity (%), α-Amylase activity ([3]; compound 10 mM, no addition = 100): 18%
